# Assay: Solubility test of the ester compound in test solvents
# Type: physicochemical
# Description: The solubility tests were performed with the diisopropyl ester of N,N′-bis(benzyl)ethylenediamine-N,N′-diacetic acid.
# The test solvent was poured into a beaker, an amount of the ester compound was added with magnetic stirring and the mixture was left to stand for between 1 hour and 24 hours. The mixture was then heated to 50° C. and then cooled to room temperature (25° C.) over 24 hours. The system was then observed to see if the amount of the ester compound introduced recrystallized or remained dissolved.
# The amount of ester compound that can be dissolved in the test solvent was determined in this manner. The maximum value corresponds to the amount at and above which the ester compound stops dissolving in the evaluated solvent.
smiles,measurement,setting,value
"CC(C)OC(=O)CN(CCN(CC(=O)OC(C)C)Cc1ccccc1)Cc1ccccc1 [diisopropyl ester of N,N′-bis(benzyl)ethylenediamine-N,N′-diacetic acid]",Weight % of dissolved ester compound,"solvent: 2-Ethylhexyl salicylate, 25° C.",10 Weight %
same,Weight % of dissolved ester compound,"solvent: 2-Octyldodecanol, 25° C.",10 Weight %
same,Weight % of dissolved ester compound,"solvent: Apricot oil, 25° C.",12 Weight %
same,Weight % of dissolved ester compound,"solvent: Butylene glycol, 25° C.",1 Weight %
same,Weight % of dissolved ester compound,"solvent: Cyclohexasiloxane, 25° C.",4.7 Weight %
same,Weight % of dissolved ester compound,"solvent: Cyclopentasiloxane, 25° C.",4.5 Weight %
same,Weight % of dissolved ester compound,"solvent: Dimethyl isosorbide, 25° C.",38 Weight %
same,Weight % of dissolved ester compound,"solvent: Dipropylene glycol, 25° C.",10.7 Weight %
same,Weight % of dissolved ester compound,"solvent: Ethanol, 25° C.",8 Weight %
same,Weight % of dissolved ester compound,"solvent: Glycerol, 25° C.",1 Weight %
same,Weight % of dissolved ester compound,"solvent: Hexylene glycol, 25° C.",11.5 Weight %
same,Weight % of dissolved ester compound,"solvent: Hydrogenated isoparaffin (Parleam from NOF), 25° C.",9 Weight %
same,Weight % of dissolved ester compound,"solvent: Isononyl isononanoate, 25° C.",16 Weight %
same,Weight % of dissolved ester compound,"solvent: Isopropyl N-lauroylsarcosinate (Eldew SL-205 from Ajinomoto), 25° C.",18 Weight %
same,Weight % of dissolved ester compound,"solvent: Isopropyl myristate, 25° C.",11.5 Weight %
same,Weight % of dissolved ester compound,"solvent: Isopropyl palmitate, 25° C.",9 Weight %
same,Weight % of dissolved ester compound,"solvent: Phenyl trimethicone (Dow Corning 556), 25° C.",12 Weight %
same,Weight % of dissolved ester compound,"solvent: Propylene glycol, 25° C.",1 Weight %
same,Weight % of dissolved ester compound,"solvent: Squalane, 25° C.",9 Weight %
same,Weight % of dissolved ester compound,"solvent: Water, heated to 50° C., cooled to room temperature (25° C.) over 24 hours",Insoluble

# From patent publication US20100254922A1, “COSMETIC AND/OR DERMATOLOGICAL COMPOSITION BASED ON N,N'-[…] ACID ESTER(S)” (L'OREAL, priority 2008, published 2010)
